Reference: patent US8455688B2, “HDAC inhibitors” (Lixte Biotechnology, Inc., priority 2007, dated 2013)
Values after ≈ are worked out from the molar mass of the structure shown. Read-outs that look alike come from different tables or passages of the source.

Legend:
C. albicans = experiment: Broth dilution antifungal susceptibility testing, C. albicans; format: cell-based, Candida albicans; settings: Candida albicans, 50% reduction in turbidity, read-out: minimum inhibitory concentration (MIC)
Method: (§1) A total of 23 isolates were tested to include 3 Candida albicans, 3 Candida glabrata, 3 Cryptococcus neoformans, 3 Aspergillus fumigatus, 3 Rhizopus oryzae, 3, Fusarium solani, 3 Pseudallescheria boydii, and 2 […]. All isolates were clinical isolates submitted to the Fungus Testing Laboratory for evaluation. Antifungal susceptibility testing was accomplished according to the methods outlined in the National Committee for Clinical Laboratory Standards, M-27A2, Reference Method for Broth Dilution Antifungal Susceptibility Testing of Yeasts; Approved Standard, and M38-A “Reference Method for Broth Dilution Antifungal Susceptibility Testing of Conidium-Forming Filamentous Fungi; Approved Standard”. This includes testing in RPMI-1640 with glutamine and without bicarbonate, an inoculum size of 0.5-2.5×10^3 for yeasts or […] for moulds, and incubation at 35° C. for 24 and 48 hours. […] Drug concentrations were 0.125-64 μg/ml. A 10 mg portion of each powder was weighed out and added to 1 ml of 100% DMSO for compound 205. The resulting concentration of […] was diluted to a working concentration of 6400 μg/ml for compound 205 in 100% DMSO. All subsequent dilutions were also made using the respective diluents. Final testing concentrations ranged from 0.125-64 μg/ml. The NCCLS recommended medium RPMI-1640 (Hardy Diagnostics, Santa Monica, Calif.) was utilized as the test medium. All isolates in this study were clinical isolates received in the Fungus Testing Laboratory for standard antifungal susceptibility testing and/or identification. Isolates, which were not sent for identification, were confirmed to assure testing integrity. A total of 23 were tested to include 3 Candida albicans, 3 Candida glabrata, 3 Cryptococcus neoformans, 3 Aspergillus fumigatus, 3 Rhizopus oryzae, 3, Fusarium solani, 3 Pseudallescheria boydii, and 2 […]. Minimum inhibitory concentrations (MIC) were determined at the first 24-hour interval where growth could be determined in the drug-free control tube.

C. glabrata = experiment: Broth dilution antifungal susceptibility testing, C. glabrata; format: cell-based, Candida glabrata; settings: Nakaseomyces glabratus, 50% reduction in turbidity, read-out: minimum inhibitory concentration (MIC)
Method: as §1

C. neoformans = experiment: Broth dilution antifungal susceptibility testing, C. neoformans; format: cell-based; settings: Cryptococcus neoformans, 50% reduction in turbidity, read-out: minimum inhibitory concentration (MIC)
Method: as §1

R. arrhizus = experiment: Broth dilution antifungal susceptibility testing, R. arrhizus; format: cell-based, Rhizopus oryzae; settings: Rhizopus arrhizus, 80% inhibition, read-out: minimum inhibitory concentration (MIC)
Method: as §1

F. solani = experiment: Broth dilution antifungal susceptibility testing, F. solani; format: cell-based; settings: Fusarium solani, 80% inhibition, read-out: minimum inhibitory concentration (MIC)
Method: as §1

S. apiospermum = experiment: Broth dilution antifungal susceptibility testing, S. apiospermum; format: cell-based, Pseudallescheria boydii; settings: Scedosporium apiospermum, 80% inhibition, read-out: minimum inhibitory concentration (MIC)
Method: as §1

A. fumigatus = experiment: Broth dilution antifungal susceptibility testing, A. fumigatus; format: cell-based, Aspergillus fumigatus; settings: Aspergillus fumigatus, 80% inhibition, read-out: minimum inhibitory concentration (MIC)
Method: as §1

T. rubrum = experiment: Broth dilution antifungal susceptibility testing, T. rubrum; format: cell-based, Trichophyton rubrum; settings: Trichophyton rubrum, 80% inhibition, read-out: minimum inhibitory concentration (MIC)
Method: as §1

[1] = 24 h, isolate 07-3006, 24 hours
[2] = 24 h, isolate 07-3011, 24 hours
[3] = 24 h, isolate 07-3012, 24 hours
[4] = 48 h, isolate 07-3006, 48 hours
[5] = 48 h, isolate 07-3011, 48 hours
[6] = 48 h, isolate 07-3012, 48 hours
[7] = 24 h, isolate 07-2964, 24 hours
[8] = 24 h, isolate 07-2965, 24 hours
[9] = 24 h, isolate 07-3013, 24 hours
[10] = 48 h, isolate 07-2964, 48 hours
[11] = 48 h, isolate 07-2965, 48 hours
[12] = 48 h, isolate 07-3013, 48 hours
[13] = 24 h, isolate 07-2665, 24 hours
[14] = 24 h, isolate 07-2737, 24 hours
[15] = 24 h, isolate 07-2829, 24 hours
[16] = 48 h, isolate 07-2665, 48 hours
[17] = 48 h, isolate 07-2737, 48 hours
[18] = 48 h, isolate 07-2829, 48 hours
[19] = 24 h, isolate 07-1870, 24 hours
[20] = 24 h, isolate 07-2044, 24 hours
[21] = 24 h, isolate 07-2078, 24 hours
[22] = 48 h, isolate 07-1870, 48 hours
[23] = 48 h, isolate 07-2044, 48 hours
[24] = 48 h, isolate 07-2078, 48 hours
[25] = 24 h, isolate 07-1399, 24 hours
[26] = 24 h, isolate 07-1755, 24 hours
[27] = 24 h, isolate 07-1867, 24 hours
[28] = 48 h, isolate 07-1399, 48 hours
[29] = 48 h, isolate 07-1755, 48 hours
[30] = 48 h, isolate 07-1867, 48 hours
[31] = 24 h, isolate 07-1333, 24 hours
[32] = 24 h, isolate 07-1502, 24 hours
[33] = 24 h, isolate 07-1601, 24 hours
[34] = 48 h, isolate 07-1333, 48 hours
[35] = 48 h, isolate 07-1502, 48 hours
[36] = 48 h, isolate 07-1601, 48 hours
[37] = 24 h, isolate 06-4126, 24 hours
[38] = 24 h, isolate 07-2039, 24 hours
[39] = 48 h, isolate 06-4126, 48 hours
[40] = 48 h, isolate 07-2039, 48 hours
[41] = 24 h, isolate 07-1743, 24 hours
[42] = 24 h, isolate 07-2055, 24 hours
[43] = 48 h, isolate 07-1743, 48 hours
[44] = 48 h, isolate 07-2055, 48 hours

Work on O=C(CCCCCNC(=O)c1cc(Cl)ccc1S)Nc1ccccc1 [Compound 210] yielded an MIC (C. albicans; [1]) greater than 64 µg/mL, an MIC (C. albicans; [2]) greater than 64 µg/mL and an MIC (C. albicans; [3]) greater than 64 µg/mL. The MIC (C. albicans; [4]) was greater than 64 µg/mL, the MIC (C. albicans; [5]) was greater than 64 µg/mL and the MIC (C. albicans; [6]) was greater than 64 µg/mL. For the same compound, the MIC (C. glabrata; [7]) was greater than 64 µg/mL, the MIC (C. glabrata; [8]) was greater than 64 µg/mL and the MIC (C. glabrata; [9]) was greater than 64 µg/mL. The MIC (C. glabrata; [10]) was greater than 64 µg/mL, the MIC (C. glabrata; [11]) was greater than 64 µg/mL and the MIC (C. glabrata; [12]) was greater than 64 µg/mL. The MIC (C. neoformans; [13]) was greater than 64 µg/mL, the MIC (C. neoformans; [14]) was greater than 64 µg/mL and the MIC (C. neoformans; [15]) was greater than 64 µg/mL. The MIC (C. neoformans; [16]) was greater than 64 µg/mL, the MIC (C. neoformans; [17]) was greater than 64 µg/mL and the MIC (C. neoformans; [18]) was greater than 64 µg/mL. For the same compound, the MIC (R. arrhizus; [19]) was 4 µg/mL (≈ 10.6 µM), the MIC (R. arrhizus; [20]) was 4 µg/mL (≈ 10.6 µM) and the MIC (R. arrhizus; [21]) was greater than 64 µg/mL. For the same compound, the MIC (R. arrhizus; [22]) was greater than 64 µg/mL, the MIC (R. arrhizus; [23]) was greater than 64 µg/mL and the MIC (R. arrhizus; [24]) was greater than 64 µg/mL. The MIC (F. solani; [25]) was 1 µg/mL (≈ 2.65 µM), the MIC (F. solani; [26]) was 1 µg/mL (≈ 2.65 µM) and the MIC (F. solani; [27]) was 2 µg/mL (≈ 5.31 µM). It also gave an MIC (F. solani; [28]) greater than 64 µg/mL, an MIC (F. solani; [29]) greater than 64 µg/mL and an MIC (F. solani; [30]) greater than 64 µg/mL. For the same compound, the MIC (S. apiospermum; [31]) was 1 µg/mL (≈ 2.65 µM), the MIC (S. apiospermum; [32]) was 1 µg/mL (≈ 2.65 µM) and the MIC (S. apiospermum; [33]) was 1 µg/mL (≈ 2.65 µM). It also gave an MIC (S. apiospermum; [34]) greater than 64 µg/mL, an MIC (S. apiospermum; [35]) greater than 64 µg/mL and an MIC (S. apiospermum; [36]) greater than 64 µg/mL. For the same compound, the MIC (A. fumigatus; 24 h, isolate 05-388, 24 hours) was 2 µg/mL (≈ 5.31 µM), the MIC (A. fumigatus; [37]) was 2 µg/mL (≈ 5.31 µM) and the MIC (A. fumigatus; [38]) was 2 µg/mL (≈ 5.31 µM). For the same compound, the MIC (A. fumigatus; 48 h, isolate 05-388, 48 hours) was greater than 64 µg/mL, the MIC (A. fumigatus; [39]) was greater than 64 µg/mL and the MIC (A. fumigatus; [40]) was greater than 64 µg/mL. The MIC (T. rubrum; [41]) was 0.25 µg/mL (≈ 0.663 µM), the MIC (T. rubrum; [42]) was 0.25 µg/mL (≈ 0.663 µM) and the MIC (T. rubrum; [43]) was 0.5 µg/mL (≈ 1.33 µM). The MIC (T. rubrum; [44]) was 0.5 µg/mL (≈ 1.33 µM).
Nc1ccc(NC(=O)CCCCCNC(=O)c2ccccc2S)cc1 [Compound 209, 2-Mercapto-N-[5-(4-Aminophenylcarbamoyl)-pentyl]benzamide] gave an MIC (C. albicans; [1]) of 2 µg/mL (≈ 5.59 µM), an MIC (C. albicans; [2]) of 2 µg/mL (≈ 5.59 µM) and an MIC (C. albicans; [3]) of 2 µg/mL (≈ 5.59 µM). The MIC (C. albicans; [4]) was 32 µg/mL (≈ 89.5 µM), the MIC (C. albicans; [5]) was 32 µg/mL (≈ 89.5 µM) and the MIC (C. albicans; [6]) was 32 µg/mL (≈ 89.5 µM). For the same compound, the MIC (C. glabrata; [7]) was 2 µg/mL (≈ 5.59 µM), the MIC (C. glabrata; [8]) was 2 µg/mL (≈ 5.59 µM) and the MIC (C. glabrata; [9]) was 2 µg/mL (≈ 5.59 µM). It also gave an MIC (C. glabrata; [10]) of 32 µg/mL (≈ 89.5 µM), an MIC (C. glabrata; [11]) of 32 µg/mL (≈ 89.5 µM) and an MIC (C. glabrata; [12]) of 32 µg/mL (≈ 89.5 µM). For the same compound, the MIC (C. neoformans; [13]) was 32 µg/mL (≈ 89.5 µM), the MIC (C. neoformans; [14]) was 8 µg/mL (≈ 22.4 µM) and the MIC (C. neoformans; [15]) was 16 µg/mL (≈ 44.8 µM). For the same compound, the MIC (C. neoformans; [16]) was 32 µg/mL (≈ 89.5 µM), the MIC (C. neoformans; [17]) was 16 µg/mL (≈ 44.8 µM) and the MIC (C. neoformans; [18]) was 16 µg/mL (≈ 44.8 µM). The MIC (R. arrhizus; [19]) was 2 µg/mL (≈ 5.59 µM), the MIC (R. arrhizus; [20]) was 2 µg/mL (≈ 5.59 µM) and the MIC (R. arrhizus; [21]) was greater than 64 µg/mL. For the same compound, the MIC (R. arrhizus; [22]) was greater than 64 µg/mL, the MIC (R. arrhizus; [23]) was greater than 64 µg/mL and the MIC (R. arrhizus; [24]) was greater than 64 µg/mL. For the same compound, the MIC (F. solani; [25]) was greater than 64 µg/mL, the MIC (F. solani; [26]) was greater than 64 µg/mL and the MIC (F. solani; [27]) was greater than 64 µg/mL. It also gave an MIC (F. solani; [28]) greater than 64 µg/mL, an MIC (F. solani; [29]) greater than 64 µg/mL and an MIC (F. solani; [30]) greater than 64 µg/mL. For the same compound, the MIC (S. apiospermum; [31]) was 64 µg/mL (≈ 179 µM), the MIC (S. apiospermum; [32]) was 32 µg/mL (≈ 89.5 µM) and the MIC (S. apiospermum; [33]) was 8 µg/mL (≈ 22.4 µM). The MIC (S. apiospermum; [34]) was greater than 64 µg/mL, the MIC (S. apiospermum; [35]) was greater than 64 µg/mL and the MIC (S. apiospermum; [36]) was greater than 64 µg/mL. For the same compound, the MIC (A. fumigatus; 24 h, isolate 05-388, 24 hours) was 16 µg/mL (≈ 44.8 µM), the MIC (A. fumigatus; [37]) was 16 µg/mL (≈ 44.8 µM) and the MIC (A. fumigatus; [38]) was 32 µg/mL (≈ 89.5 µM). It also gave an MIC (A. fumigatus; 48 h, isolate 05-388, 48 hours) greater than 64 µg/mL, an MIC (A. fumigatus; [39]) greater than 64 µg/mL and an MIC (A. fumigatus; [40]) greater than 64 µg/mL. For the same compound, the MIC (T. rubrum; [41]) was 8 µg/mL (≈ 22.4 µM), the MIC (T. rubrum; [42]) was 8 µg/mL (≈ 22.4 µM) and the MIC (T. rubrum; [43]) was 8 µg/mL (≈ 22.4 µM). The MIC (T. rubrum; [44]) was 8 µg/mL (≈ 22.4 µM).
